Results on 19 compounds are retold here after patent US20240140938A1, “PREPARATION OF TETRAHYDROINDAZOLE DERIVATIVES AS NOVEL DIACYLGLYCERIDE O-ACYLTRANSFERASE 2 INHIBITORS” (MERCK SHARP & DOHME LLC, priority 2020, published 2024).

Chain of human DGAT2 (hDGAT2) (Q96PD7 whole entry): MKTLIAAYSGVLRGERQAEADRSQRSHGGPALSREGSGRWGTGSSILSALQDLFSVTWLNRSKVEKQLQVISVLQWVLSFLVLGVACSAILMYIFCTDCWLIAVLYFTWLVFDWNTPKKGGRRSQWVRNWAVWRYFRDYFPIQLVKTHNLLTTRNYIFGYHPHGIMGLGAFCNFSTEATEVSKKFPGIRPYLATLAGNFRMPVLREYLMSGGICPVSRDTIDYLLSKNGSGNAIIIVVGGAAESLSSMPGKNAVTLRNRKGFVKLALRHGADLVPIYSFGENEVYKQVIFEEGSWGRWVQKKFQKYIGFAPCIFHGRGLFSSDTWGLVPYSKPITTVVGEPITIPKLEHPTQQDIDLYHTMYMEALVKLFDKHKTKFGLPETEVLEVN

One test addresses human DGAT2 (hDGAT2) (Homo sapiens (Human), UniProt Q96PD7). In words: DGAT2 Enzymatic Activity Assay. Format: biochemical. Conditions: hDGAT2 Sf-9 membrane prep; 13C18-triolein product by LC/MS/MS; 25 μM diolein, 5 μM 13C oleoyl-CoA. As for the experimental part: Sf-9 insect cells were maintained in Grace's insect cell culture medium with 10% heated-inactivated fetal bovine serum, 1% Pluronic F-68 and 0.14 μg/ml Kanamycine sulfate at 27° C. in a shaker incubator. After infection with untagged baculovirus expressing human DGAT2 (hDGAT2) at multiplicity of infection (MOI) 3 for 48 hours, cells were harvested. Cell pellets were suspended in buffer containing 10 mM Tris-HCl pH 7.5, 1 mM EDTA, 250 mM sucrose and Complete Protease Inhibitor Cocktail (Sigma Aldrich), and sonicated on ice. Cell debris were removed by centrifugation at 2000×g for 15 minutes. Membrane fractions were isolated by ultracentrifugation (100,000×g), resuspended in the same buffer, and frozen (−80° C.) for later use. The protein concentration was determined with the Pierce™ BCA Protein Assay Kit (Thermo Fisher Scientific).
LC/MS/MS analyses were performed using Thermal Fisher's LX4-TSQ Vantage system. This system consists of an Agilent binary high-performance liquid chromatography (HPLC) pump and a TSQ Vantage triple quadrupole MS/MS instrument. For each sample, 2 μL samples from the top organic layer of in-plate liquid-liquid extraction were injected onto a Thermo Betabasic C4 column (2.1 mm×20 mm, 5 μm particle size). The samples were then eluted using the following conditions; mobile phase: Isopropanol: acetonitrile/10 mM ammonium formate=50/35/15 (v/v/v), flow rate: 0.8 mL/min, temperature: 25° C. Data was acquired in positive mode using a heated electrospray ionization (HESI) interface. […] The peak area was integrated by Xcalibur Quan software. The ratio between the ^13C18triolein generated in the reaction and spiked in internal standard ^13C21-triolein was used to generate percentage inhibition and IC50 values. Compound percentage inhibition was calculated by the following formula: Inhibition %=1−[(compound response−low control)/(high control−low control)]×100%.
DGAT2 activity was determined by measuring the amount of enzymatic product ^13C18-triolein (^13C-1,2,3-Tri(cis-9-octadecenoyl)glycerol) using the membrane prep mentioned above. The assay was carried out in ABgene 384-well assay plates in a final volume of 25 μL at rt.
In the case of `[2H]C([2H])([2H])C([2H])(n1nc(-c2cc(OC(F)F)ccc2F)c2c1C[C@H](C(=O)NC1(C#N)CCS(=O)(=O)CC1)CC2)C([2H])([2H])[2H]` [Example 51, (R)-N-(4-cyano-1,1-dioxidotetrahydro-2H-thiopyran-4-yl)-3-(5-(difluoromethoxy)-2-fluorophenyl)-1-(propan-2-yl-d7)-4,5,6,7-tetrahydro-1H-indazole-6-carboxamide], the IC50 (as a rule, the concentration needed to halve the response being measured) was determined as 4.3 nM.
On the same count and under the same terms, to `CC(C)n1nc(-c2cccc(OCC#N)c2)c2c1C[C@H](C(=O)NC1(C)CS(=O)(=O)C1)CC2` [Example 96, (R)-3-(3-(cyanomethoxy)phenyl)-1-isopropyl-N-(3-methyl-1,1-dioxidothietan-3-yl)-4,5,6,7-tetrahydro-1H-indazole-6-carboxamide] belongs > 10000 nM; to `CC(C)n1nc(-c2cc(OC(F)F)ccc2F)c2c1C[C@H](C(=O)NC1(C)CCS(=O)(=O)CC1)CC2` [Example 30, (R)-3-(5-(difluoromethoxy)-2-fluorophenyl)-1-isopropyl-N-(4-methyl-1,1-dioxidotetrahydro-2H-thiopyran-4-yl)-4,5,6,7-tetrahydro-1H-indazole-6-carboxamide], 5.5 nM.
On the same count and under the same terms, to `C[C@]1(NC(=O)C2CCc3c(-c4cccc(OC(F)F)c4)nn(-c4ncc(Cl)cn4)c3C2)CCS(=O)(=O)C1` (stereo partly drawn) [Example 10, 1-(5-chloropyrimidin-2-yl)-3-(3-(difluoromethoxy)phenyl)-N-((S)-3-methyl-1,1-dioxidotetrahydrothiophen-3-yl)-4,5,6,7-tetrahydro-1H-indazole-6-carboxamide] belongs 37 nM; to `CC(C)n1nc(-c2cc(OC(F)F)ccc2F)c2c1CC(C(=O)N[C@@]1(C)CCS(=O)(=O)C1)CO2` (stereo partly drawn) [Example 122, 3-(5-(difluoromethoxy)-2-fluorophenyl)-1-isopropyl-N-((S)-3-methyl-1,1-dioxidotetrahydrothiophen-3-yl)-1,5,6,7-tetrahydropyrano[3,2-c]pyrazole-6-carboxamide], 5.8 nM; to `CC(C)Oc1ccc(F)c(-c2nn(C(C)C)c3c2CC[C@@H](C(=O)NC2(C)CS(=O)(=O)C2)C3)c1` [Example 81, (R)-3-(2-fluoro-5-isopropoxyphenyl)-1-isopropyl-N-(3-methyl-1,1-dioxidothietan-3-yl)-4,5,6,7-tetrahydro-1H-indazole-6-carboxamide], 24.5 nM.
Consider `CC(C)n1nc(-c2cccc(C3(O)CCC3)c2)c2c1C[C@H](C(=O)NC1(C)CC(F)(F)C1)CC2` [Example 103, (R)-N-(3,3-difluoro-1-methylcyclobutyl)-3-(3-(1-hydroxycyclobutyl)phenyl)-1-isopropyl-4,5,6,7-tetrahydro-1H-indazole-6-carboxamide], for which the IC50 is > 10000 nM.
The same measure, in the same setting: to `CC1(NC(=O)[C@@H]2CCc3c(-c4cc(OC(F)F)ccc4F)nn(S(=O)(=O)C4CC4)c3C2)CS(=O)(=O)C1` [Example 116, (R)-1-(cyclopropylsulfonyl)-3-(5-(difluoromethoxy)-2-fluorophenyl)-N-(3-methyl-1,1-dioxidothietan-3-yl)-4,5,6,7-tetrahydro-1H-indazole-6-carboxamide] belongs 68.1 nM.
On the same count and under the same terms, the result for `CC(C)n1nc(-c2cccc(OC(F)F)c2)c2c1CC(C(=O)NC1(C)CS(=O)(=O)C1)OC2` (single isomer, unassigned) [EX-134b, 3-(3-(difluoromethoxy)phenyl)-1-isopropyl-N-(3-methyl-1,1-dioxidothietan-3-yl)-1,4,6,7-tetrahydropyrano[4,3-c]pyrazole-6-carboxamide] reads 7610 nM; that for `C[C@]1(NC(=O)[C@@H]2CCc3c(-c4cccc(OC(F)F)c4)nn(CC4CCOCC4)c3C2)CCS(=O)(=O)C1` [Example 78, (R)-3-(3-(difluoromethoxy)phenyl)-N-((S)-3-methyl-1,1-dioxidotetrahydrothiophen-3-yl)-1-((tetrahydro-2H-pyran-4-yl)methyl)-4,5,6,7-tetrahydro-1H-indazole-6-carboxamide], > 10000 nM.
In the case of `[2H]C([2H])([2H])C([2H])(n1nc(-c2cc(OC(F)F)ccc2F)c2c1C[C@H](C(=O)NC1(C)CCS(=O)(=O)CC1)CC2)C([2H])([2H])[2H]` [Example 46, (R)-3-(5-(difluoromethoxy)-2-fluorophenyl)-N-(4-methyl-1,1-dioxidotetrahydro-2H-thiopyran-4-yl)-1-(propan-2-yl-d7)-4,5,6,7-tetrahydro-1H-indazole-6-carboxamide], half-maximal inhibition (IC50) required 37.9 nM.
Regarding `CCOc1cccc(-c2nn(C(C)C)c3c2CC[C@@H](C(=O)NC2(C)CCS(=O)(=O)CC2)C3)c1` [Example 33, (R)-3-(3-ethoxyphenyl)-1-isopropyl-N-(4-methyl-1,1-dioxidotetrahydro-2H-thiopyran-4-yl)-4,5,6,7-tetrahydro-1H-indazole-6-carboxamide], 3.3 nM corresponded to half-maximal inhibition (IC50).
As for `CC(C)n1nc(-c2cccc(OC3CC3)c2)c2c1C[C@H](C(=O)NC1(C)CCS(=O)(=O)CC1)CC2` [Example 32, (R)-3-(3-cyclopropoxyphenyl)-1-isopropyl-N-(4-methyl-1,1-dioxidotetrahydro-2H-thiopyran-4-yl)-4,5,6,7-tetrahydro-1H-indazole-6-carboxamide], the IC50 was 29.1 nM.
The same measure, in the same setting: the result for `CNS(=O)(=O)CCNC(=O)[C@@H]1CCc2c(-c3cccc(OC(F)F)c3)nn(C(C)C)c2C1` [Example 71, (R)-3-(3-(difluoromethoxy)phenyl)-1-isopropyl-N-(2-(N-methylsulfamoyl)ethyl)-4,5,6,7-tetrahydro-1H-indazole-6-carboxamide] reads > 10000 nM.
The compound `N#CC1(NC(=O)[C@@H]2CCc3c(-c4cncc(OC(F)F)c4)nn(-c4ccc(F)cn4)c3C2)CCOC1` (single isomer, unassigned) [Example 15b] gave an IC50 of 236 nM.
Consider `CC(C)n1nc(-c2cc(OC(F)F)ccc2F)c2c1C[C@H](C(=O)N[C@@]1(C)CCS(=O)(=O)C1)CC2` [Example 28, (R)-3-(5-(difluoromethoxy)-2-fluorophenyl)-1-isopropyl-N-((S)-3-methyl-1,1-dioxidotetrahydrothiophen-3-yl)-4,5,6,7-tetrahydro-1H-indazole-6-carboxamide], for which the midpoint of inhibition, the IC50, lay at 30.1 nM.
Still for that read-out and setting: the result for `CC1(NC(=O)[C@@H]2CCc3c(-c4cncc(OC(F)F)c4)nn(-c4ccc(F)cn4)c3C2)CS(=O)(=O)C1` [Example 12, (R)-3-(5-(difluoromethoxy)pyridin-3-yl)-1-(5-fluoropyridin-2-yl)-N-(3-methyl-1,1-dioxidothietan-3-yl)-4,5,6,7-tetrahydro-1H-indazole-6-carboxamide] reads 65.8 nM.

Staying with this test, now noted: unit given as nm; hDGAT2 Sf-9 membrane prep; 13C18-triolein product by LC/MS/MS.
`CC1(NC(=O)C2CCc3c(-c4ccccc4Cl)nn(-c4ccc(F)cc4)c3C2)CCS(=O)(=O)C1` (stereo not shown) [Example 1, 3-(2-chlorophenyl)-1-(4-fluorophenyl)-N-(3-methyl-1,1-dioxidotetrahydrothiophen-3-yl)-4,5,6,7-tetrahydro-1H-indazole-6-carboxamide] displayed a half-inhibitory concentration (IC50) of 37.9 nM.
Same read-out and setting: to `CC1(NC(=O)C2Cc3c(c(-c4cccc(OC(F)F)c4)nn3C3CCOCC3)C(F)(F)C2)CCS(=O)(=O)C1` (stereo not shown) [Example 117, 3-(3-(difluoromethoxy)phenyl)-4,4-difluoro-N-(3-methyl-1,1-dioxidotetrahydrothiophen-3-yl)-1-(tetrahydro-2H-pyran-4-yl)-4,5,6,7-tetrahydro-1H-indazole-6-carboxamide] belongs 499 nM.
